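Each compound was tested at five concentrations against cells in 96-well plates for 48 hours. GI50 = concentration required for 50% inhibition of growth.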 Calls of active or inactive are those of the source. Cut-off read from the data, not from the text of the source: active = GI50 up to about 1.1 µM and inactive = higher.
Legend:
Assay in all cases: DTP human tumour cell line panel, 48 h
OVCAR-4 = test system: OVCAR-4
OVCAR-5 = test system: OVCAR-5
TK-10 = test system: TK-10
NCI/ADR-RES = test system: NCI/ADR-RES
SF-268 = test system: SF-268
786-0 = test system: 786-0
MDA-MB-231 = test system: MDA-MB-231
HCC 2998 = test system: HCC 2998
T47D = test system: T47D
Malme-3M = test system: Malme-3M
ACHN = test system: ACHN
IGROV-1 = test system: IGROV-1
NCI-H460 = test system: NCI-H460
MDA-MB-435 = test system: MDA-MB-435
COLO 205 = test system: COLO 205
SNB-19 = test system: SNB-19
K562 = test system: K562
NCI-H23 = test system: NCI-H23
MOLT-4 = test system: MOLT-4
Hs-578T = test system: Hs-578T

SMILES | GI50 (OVCAR-4) | GI50 (OVCAR-5) | GI50 (TK-10) | GI50 (NCI/ADR-RES) | GI50 (SF-268) | GI50 (786-0) | GI50 (MDA-MB-231) | GI50 (HCC 2998) | GI50 (T47D) | GI50 (Malme-3M) | GI50 (ACHN) | GI50 (IGROV-1) | GI50 (NCI-H460) | GI50 (MDA-MB-435) | GI50 (COLO 205) | GI50 (SNB-19) | GI50 (K562) | GI50 (NCI-H23) | GI50 (MOLT-4) | GI50 (Hs-578T)
Brc1ccc2c(-c3csc(-c4c[nH]c5ccccc45)n3)c[nH]c2c1 | 16 µM (inactive) | 16.1 µM (inactive) | 12.4 µM (inactive) | 16.8 µM (inactive) | 18.3 µM (inactive) | 17.9 µM (inactive) | 16.1 µM (inactive) | 15.1 µM (inactive) | 24.8 µM (inactive) | 16.9 µM (inactive) | 15.7 µM (inactive) | 13 µM (inactive) | 16.1 µM (inactive) | 14.9 µM (inactive) | 12.8 µM (inactive) | 17.8 µM (inactive) | – | – | – | –
O=C1CC(c2ccc(Cl)cc2)C2(C(=O)NC(=O)NC2=O)C(c2ccc(Cl)cc2)C1 (stereo not given) | 38.5 µM (inactive) | 31.3 µM (inactive) | 54.8 µM (inactive) | 26.4 µM (inactive) | 42.8 µM (inactive) | 25.1 µM (inactive) | 13.4 µM (inactive) | 27.9 µM (inactive) | 17.9 µM (inactive) | 17.1 µM (inactive) | 49 µM (inactive) | 18 µM (inactive) | 28.6 µM (inactive) | 17.3 µM (inactive) | 20.2 µM (inactive) | 32.3 µM (inactive) | 7.5 µM (inactive) | 34 µM (inactive) | 0.0075 µM (active) | –
O=C(NC12CC3CC(CC(C3)C1)C2)C(=O)c1c[nH]c2ccc(Br)cc12 | 14 µM (inactive) | 36.9 µM (inactive) | 28.8 µM (inactive) | – | 9.59 µM (inactive) | 7.13 µM (inactive) | – | 22.6 µM (inactive) | – | 17.9 µM (inactive) | 15.6 µM (inactive) | 45.5 µM (inactive) | 10.2 µM (inactive) | – | 18.6 µM (inactive) | 33.5 µM (inactive) | 8.39 µM (inactive) | 33.1 µM (inactive) | 5.41 µM (inactive) | –
COc1cc2c(c(OC)c1OC)-c1ccc(OC)c(=O)cc1C(NC(=O)c1ccc(N=[N+]=[N-])cc1)CC2 (stereo not given) | 1.24 µM (inactive) | – | 13 µM (inactive) | – | 0.0557 µM (active) | 0.0446 µM (active) | 0.0352 µM (active) | 0.0215 µM (active) | > 100 µM (inactive) | 0.608 µM (active) | 0.0809 µM (active) | 0.0466 µM (active) | 0.031 µM (active) | 0.0134 µM (active) | 0.021 µM (active) | 0.0767 µM (active) | 0.0246 µM (active) | 0.0327 µM (active) | 0.0411 µM (active) | 0.084 µM (active)
O=C1CC2CCN(C(=O)c3ccccc3)CC2CCN1 (stereo not given) | > 100 µM (inactive) | > 100 µM (inactive) | > 100 µM (inactive) | – | > 100 µM (inactive) | > 100 µM (inactive) | – | > 100 µM (inactive) | – | > 100 µM (inactive) | > 100 µM (inactive) | > 100 µM (inactive) | > 100 µM (inactive) | – | > 100 µM (inactive) | > 100 µM (inactive) | > 100 µM (inactive) | > 100 µM (inactive) | > 100 µM (inactive) | –
Cc1cc(N(C)c2ccccc2)nc(N(C)c2ccccc2)n1 | > 100 µM (inactive) | 21.2 µM (inactive) | 55.7 µM (inactive) | 58.3 µM (inactive) | 54 µM (inactive) | 41.3 µM (inactive) | 33.2 µM (inactive) | 36.9 µM (inactive) | – | 26.9 µM (inactive) | 28.4 µM (inactive) | 39 µM (inactive) | 49.9 µM (inactive) | 42.9 µM (inactive) | 23.9 µM (inactive) | 88.1 µM (inactive) | 49.9 µM (inactive) | 36.7 µM (inactive) | 33.7 µM (inactive) | 26.8 µM (inactive)
O=CC12C3CCC1C2C(=O)C3 (stereo not given) | > 100 µM (inactive) | > 100 µM (inactive) | > 100 µM (inactive) | > 100 µM (inactive) | > 100 µM (inactive) | > 100 µM (inactive) | > 100 µM (inactive) | > 100 µM (inactive) | – | > 100 µM (inactive) | > 100 µM (inactive) | > 100 µM (inactive) | > 100 µM (inactive) | > 100 µM (inactive) | > 100 µM (inactive) | > 100 µM (inactive) | > 100 µM (inactive) | > 100 µM (inactive) | > 100 µM (inactive) | –
COc1ccc(N[S+]([O-])c2cccc(C)c2)cc1 (stereo not given) | – | > 100 µM (inactive) | > 100 µM (inactive) | 14 µM (inactive) | 30.5 µM (inactive) | > 100 µM (inactive) | 48.5 µM (inactive) | 3.88 µM (inactive) | – | 75.5 µM (inactive) | 7.76 µM (inactive) | 28.3 µM (inactive) | 30 µM (inactive) | 34.9 µM (inactive) | 59.6 µM (inactive) | > 100 µM (inactive) | 9.73 µM (inactive) | > 100 µM (inactive) | 35.3 µM (inactive) | 87.9 µM (inactive)
NC(=O)NC1C(C(=O)O)N(Cc2ccccc2)C(=O)N1Cc1ccccc1 (stereo not given) | > 100 µM (inactive) | > 100 µM (inactive) | > 100 µM (inactive) | – | > 100 µM (inactive) | > 100 µM (inactive) | – | > 100 µM (inactive) | – | > 100 µM (inactive) | > 100 µM (inactive) | > 100 µM (inactive) | > 100 µM (inactive) | – | > 100 µM (inactive) | > 100 µM (inactive) | > 100 µM (inactive) | > 100 µM (inactive) | 3.72 µM (inactive) | –
CC[C@@]1(OC(=O)CN(C)C)C(=O)OCc2c1cc1n(c2=O)Cc2cc3ccccc3nc2-1 | 0.482 µM (active) | 0.247 µM (active) | 1.93 µM (inactive) | 0.0421 µM (active) | < 0.0131 µM (active) | 0.0259 µM (active) | 3.27 µM (inactive) | 0.145 µM (active) | – | 0.347 µM (active) | 0.00875 µM (active) | 0.242 µM (active) | 0.00533 µM (active) | 0.194 µM (active) | 0.394 µM (active) | 0.0208 µM (active) | 0.061 µM (active) | 0.0865 µM (active) | 0.00295 µM (active) | 4.24 µM (inactive)
COC(=O)c1cc(C#N)[nH]c1-c1cccs1 | > 100 µM (inactive) | > 100 µM (inactive) | – | 33.7 µM (inactive) | > 100 µM (inactive) | > 100 µM (inactive) | 52.7 µM (inactive) | > 100 µM (inactive) | 24.4 µM (inactive) | – | 89.9 µM (inactive) | – | > 100 µM (inactive) | > 100 µM (inactive) | > 100 µM (inactive) | > 100 µM (inactive) | > 100 µM (inactive) | 58.1 µM (inactive) | > 100 µM (inactive) | –
CN(C)C(=S)/N=c1\ss/c(=N\C(=S)N(C)C)n1-c1ccc(Cl)c(Cl)c1 | > 100 µM (inactive) | > 100 µM (inactive) | > 100 µM (inactive) | – | > 100 µM (inactive) | > 100 µM (inactive) | – | > 100 µM (inactive) | – | > 100 µM (inactive) | > 100 µM (inactive) | > 100 µM (inactive) | > 100 µM (inactive) | – | > 100 µM (inactive) | > 100 µM (inactive) | > 100 µM (inactive) | > 100 µM (inactive) | > 100 µM (inactive) | –
O=C1Nc2ccccc2C(=O)O/C(Cc2ccccc2)=N\c2ccccc21 | > 100 µM (inactive) | > 100 µM (inactive) | > 100 µM (inactive) | > 100 µM (inactive) | > 100 µM (inactive) | > 100 µM (inactive) | – | 82.8 µM (inactive) | > 100 µM (inactive) | – | > 100 µM (inactive) | > 100 µM (inactive) | > 100 µM (inactive) | > 100 µM (inactive) | > 100 µM (inactive) | > 100 µM (inactive) | > 100 µM (inactive) | > 100 µM (inactive) | > 100 µM (inactive) | –
CCN(CC)CCNc1ccc2nnn3c4ccccc4c(=O)c1c23 | 3.51 µM (inactive) | 3.67 µM (inactive) | 4.39 µM (inactive) | – | 4.83 µM (inactive) | 4.3 µM (inactive) | – | 7.31 µM (inactive) | – | 4.01 µM (inactive) | 3.24 µM (inactive) | 6.98 µM (inactive) | 2.25 µM (inactive) | – | 3.55 µM (inactive) | 5.74 µM (inactive) | 2.97 µM (inactive) | 5.81 µM (inactive) | 1.66 µM (inactive) | –
Cc1c2ccncc2c(C)c2c1[nH]c1ccc(Cl)cc12 | 2.11 µM (inactive) | 7.05 µM (inactive) | 6.07 µM (inactive) | 1.22 µM (inactive) | – | 1.07 µM (active) | – | 7.76 µM (inactive) | – | 5.68 µM (inactive) | 1.26 µM (inactive) | 2.86 µM (inactive) | 1.54 µM (inactive) | – | 2.16 µM (inactive) | 2.35 µM (inactive) | 1.62 µM (inactive) | 3.56 µM (inactive) | – | –
O=C(NCP(=O)(O)O)c1cccnc1 [(NICOTINAMIDOMETHYL)PHOSPHONIC ACID] | > 100 µM (inactive) | > 100 µM (inactive) | > 100 µM (inactive) | > 100 µM (inactive) | – | > 100 µM (inactive) | > 100 µM (inactive) | – | > 100 µM (inactive) | – | > 100 µM (inactive) | > 100 µM (inactive) | > 100 µM (inactive) | > 100 µM (inactive) | > 100 µM (inactive) | > 100 µM (inactive) | > 100 µM (inactive) | > 100 µM (inactive) | > 100 µM (inactive) | –
